Legend:
human FPR1 = human FPR1 (Homo sapiens (Human), UniProt P21462); assay: FPR1 cyclic adenosine monophosphate (cAMP) assay; type: cell-based; conditions: CHO cells overexpressing human FPR1; forskolin 10 µM; inhibition of cAMP production; read-out: hFPR1 cAMP EC50
How it was run: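 Human FPR1-expressing CHO cells were used at 4,000 per well, with compound at 0.020 nM–100 µM in 1% DMSO. Potency came from a 4-parameter logistic fit.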

human FPR2 = human FPR2 (Homo sapiens (Human), UniProt P25090); assay: FPR2 cyclic adenosine monophosphate (cAMP) assay; type: cell-based; conditions: CHO cells overexpressing human FPR2; forskolin 5 µM; inhibition of cAMP production; read-out: hFPR2 cAMP2 EC50
human FPR2, sequence (P25090 whole entry): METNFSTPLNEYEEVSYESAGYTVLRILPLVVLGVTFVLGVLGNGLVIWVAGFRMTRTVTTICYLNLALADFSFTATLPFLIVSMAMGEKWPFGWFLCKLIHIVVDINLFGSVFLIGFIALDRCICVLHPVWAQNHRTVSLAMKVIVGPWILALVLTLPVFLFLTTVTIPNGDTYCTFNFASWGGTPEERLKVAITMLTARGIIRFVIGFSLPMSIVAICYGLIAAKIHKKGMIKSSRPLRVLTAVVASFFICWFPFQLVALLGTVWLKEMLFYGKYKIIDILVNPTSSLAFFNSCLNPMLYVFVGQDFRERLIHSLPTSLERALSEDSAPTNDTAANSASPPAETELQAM
How it was run: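 Inhibition of forskolin-driven (5 µM) cAMP, with 200 µM IBMX, measured in human FPR2-expressing CHO cells, 2,000 per well, 30 min at room temperature; compounds tested 0.020 nM to 100 µM in 1% DMSO. HTRF 665/590 ratio converted to cAMP via calibration curve, then 4-parameter fit.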

human FPR1, sequence (P21462 whole entry): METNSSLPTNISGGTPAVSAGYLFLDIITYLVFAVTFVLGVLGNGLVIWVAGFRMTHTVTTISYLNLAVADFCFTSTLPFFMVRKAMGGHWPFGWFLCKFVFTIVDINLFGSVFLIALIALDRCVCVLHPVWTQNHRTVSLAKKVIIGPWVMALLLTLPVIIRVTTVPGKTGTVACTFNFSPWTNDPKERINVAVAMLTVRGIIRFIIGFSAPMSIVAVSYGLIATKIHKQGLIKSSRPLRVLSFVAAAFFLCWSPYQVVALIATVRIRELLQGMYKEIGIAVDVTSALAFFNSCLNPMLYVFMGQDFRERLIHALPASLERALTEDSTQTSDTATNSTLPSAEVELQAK

SMILES	EC50 (human FPR1)	EC50 (human FPR2)
COc1cc(F)c([C@@H]2CN(c3ccccc3P(C)(C)=O)C(=O)[C@H]2NC(=O)c2ccc(OC(F)F)cc2)c(F)c1 [Example 31]	150 nM	10 nM
COc1cc(C2CCN(C)CC2)nc(N2C(=O)[C@@H](NC(=O)c3ccc(OC(F)(F)F)cc3)[C@H](c3c(F)cc(OC)cc3F)[C@@H]2C)c1 [Example 565]	720 nM	8.2 nM
COCC(C(=O)N1CCCC1)n1cccc(N2C[C@@H](c3ccc(OC)cc3)[C@H](NC(=O)c3ccc(OC(F)F)cc3)C2=O)c1=O (some centres unmarked) [Example 444]	1 nM	1.8 nM
COCC(CO)n1ccc(C)c(N2C[C@@H](c3c(F)cc(OC)cc3F)[C@H](NC(=O)c3ccc(OC(F)(F)F)cc3)C2=O)c1=O (some centres unmarked) [Example 325]	1.6 nM	11 nM
COc1cc(F)c([C@@H]2CN(c3c(C)ccn(C4CCNC4)c3=O)C(=O)[C@H]2NC(=O)c2ccc(Cl)cc2)c(F)c1 (some centres unmarked) [Example 530]	680 nM	3.1 nM
COc1cc(F)c([C@@H]2CN(c3cccn(CC(OC)C(F)(F)F)c3=O)C(=O)[C@H]2NC(=O)c2ccc(Cl)cc2)c(F)c1 (some centres unmarked) [Example 417]	17 nM	2.9 nM
COc1cc(F)c([C@@H]2CN(c3c(C)ccn(CC(O)C(F)(F)F)c3=O)C(=O)[C@H]2NC(=O)c2ccc(OC(F)F)cc2)c(F)c1 (some centres unmarked) [Example 489]	5 nM	0.7 nM
COc1cc(F)c([C@@H]2CN(c3c(C)ccn(CC4CCOC4)c3=O)C(=O)[C@H]2NC(=O)c2ccc(OC(F)F)cc2)c(F)c1 (some centres unmarked) [Example 695]	4 nM	3.5 nM
COc1cc(F)c([C@@H]2CN(c3cc(C#N)cn(C)c3=O)C(=O)[C@H]2NC(=O)c2ccc(OC(F)F)cc2)c(F)c1 [Example 330]	3700 nM	13 nM
COc1ccc([C@@H]2CN(c3c(C)ccn(CCC(F)(F)F)c3=O)C(=O)[C@H]2NC(=O)c2ccc(Cl)cc2)cc1 [Example 594]	1.4 nM	2.4 nM
COc1cc(F)c([C@@H]2CN(c3cccn(C)c3=O)C(=O)[C@H]2NC(=O)c2ccc(Cl)cc2)c(F)c1 [Example 193]	570 nM	5.1 nM
COc1cc(F)c([C@@H]2CN(c3c(C)ccn(CCS(C)(=O)=O)c3=O)C(=O)[C@H]2NC(=O)c2ccc(OC(F)F)cc2)c(F)c1 [Example 470]	8 nM	1.9 nM
COc1ccc([C@@H]2CN(c3ccnn(CC(F)F)c3=O)C(=O)[C@H]2NC(=O)c2ccc(Cl)cc2)cc1 [Example 690]	24 nM	11 nM
COc1ccc([C@@H]2CN(c3c(C)ccn(CC4CCOCC4)c3=O)C(=O)[C@H]2NC(=O)c2ccc(OC(F)F)cc2)cc1 [Example 699]	3 nM	6.6 nM
COc1cc(F)c([C@@H]2CN(c3nccc(NCC(=O)NC4CC4)c3C(F)(F)F)C(=O)[C@H]2NC(=O)c2ccc(Cl)cc2)c(F)c1 [Example 281]	560 nM	8.2 nM
COc1cc(C)nc(N2C[C@@H](c3c(F)cc(OC)cc3F)[C@H](NC(=O)c3ccc(OC(F)F)cc3)C2=O)c1 [Example 588]	410 nM	6.9 nM
COc1cc(F)c([C@@H]2CN(c3c(C)ccn(C4CCNC4)c3=O)C(=O)[C@H]2NC(=O)c2ccc(OC(F)F)cc2)c(F)c1 (some centres unmarked) [Example 601]	170 nM	2 nM
COc1cc(F)c([C@@H]2CN(c3c(C)ccn(C4CCOC4)c3=O)C(=O)[C@H]2NC(=O)c2ccc(OC(F)(F)F)cc2)c(F)c1 (some centres unmarked) [Example 655]	1.2 nM	3.8 nM
COc1ccc([C@@H]2CN(c3cccn(CC(O)C(F)(F)F)c3=O)C(=O)[C@H]2NC(=O)c2ccc(OC(F)(F)F)cc2)cc1 (some centres unmarked) [Example 354]	7 nM	3.2 nM
CCn1cccc(N2C[C@@H](c3c(F)cc(OC)cc3F)[C@H](NC(=O)c3ccc(OC(F)F)cc3)C2=O)c1=O [Example 169]	21 nM	4.3 nM
COc1cc(F)c([C@@H]2CN(c3cccn4cc(C(C)C)nc34)C(=O)[C@H]2NC(=O)c2ccc(Cl)cc2)c(F)c1 [Example 496]	1100 nM	3 nM
COCCn1cccc(N2C(=O)[C@@H](NC(=O)c3ccc(Cl)cc3)[C@H](c3c(F)cc(OC)cc3F)[C@H]2C)c1=O [Example 220]	990 nM	5.8 nM
COc1ccc([C@@H]2CN(c3cccn(CC(C)O)c3=O)C(=O)[C@H]2NC(=O)c2ccc(OC(F)(F)F)cc2)cc1 (some centres unmarked) [Example 440]	11 nM	1.3 nM
COCCn1cccc(N2C[C@@H](c3ccc(Cl)cc3)[C@H](NC(=O)c3ccc(OC(F)(F)F)cc3)C2=O)c1=O [Example 107]	5.7 nM	2.9 nM
COc1ccc([C@@H]2CN(c3cccn(CC(C)O)c3=O)C(=O)[C@H]2NC(=O)c2ccc(OC(F)F)cc2)c(F)c1 (some centres unmarked) [Example 436]	9 nM	< 5 nM

SMILES	EC50 (human FPR1)	EC50 (human FPR2)
COc1cc(F)c([C@H]2[C@H](NC(=O)c3ccc(OC(F)F)cc3)C(=O)N(c3cccc(N4C[C@@H]5C[C@H]4CN5C)n3)[C@H]2C)c(F)c1 [Example 526]	2300 nM	1.1 nM
COc1cc(F)c([C@@H]2CN(c3cccnc3OC(F)F)C(=O)[C@H]2NC(=O)c2ccc(Cl)cc2)c(F)c1 [Example 123]	41 nM	3.2 nM
COc1cc(F)c([C@H]2[C@H](NC(=O)c3ccc(OC(F)F)cc3)C(=O)N(c3cccc(C4CCN(CCO)CC4)n3)[C@H]2C)c(F)c1 [Example 524]	1400 nM	0.8 nM
COc1cc(F)c([C@@H]2CN(c3cccnc3C#N)C(=O)[C@H]2NC(=O)c2ccc(OC(F)F)cc2)c(F)c1 [Example 1, N-((3S,4R)-1-(2-cyanopyridin-3-yl)-4-(2,6-difluoro-4-methoxyphenyl)-2-oxopyrrolidin-3-yl)-4-(difluoromethoxy)benzamide]	4200 nM	28 nM
COCC(C(=O)N1CCCC1)n1cccc(N2C[C@@H](c3c(F)cc(OC)cc3F)[C@H](NC(=O)c3ccc(OC(F)F)cc3)C2=O)c1=O (some centres unmarked) [Example 485]	2 nM	1.7 nM
CNC(=O)C(C)Nc1ccnc(N2C[C@@H](c3c(F)cc(OC)cc3F)[C@H](NC(=O)c3ccc(Cl)cc3)C2=O)c1C(F)(F)F (some centres unmarked) [Example 290]	1800 nM	8.6 nM
COc1cc(F)c([C@@H]2CN(c3cc(F)cc(OC(C)C)c3)C(=O)[C@H]2NC(=O)c2ccc(OC(F)F)cc2)c(F)c1 [Example 29]	110 nM	51 nM
COc1cc(F)c([C@@H]2CN(c3cccn(CC(C)(CO)CO)c3=O)C(=O)[C@H]2NC(=O)c2ccc(OC(F)F)cc2)c(F)c1 [Example 218]	140 nM	5.7 nM
COc1cc(F)c([C@@H]2CN(c3nc(N4C[C@@H](C)N(C)[C@@H](C)C4)ccc3OC)C(=O)[C@H]2NC(=O)c2ccc(Cl)cc2)c(F)c1 [Example 284]	580 nM	8.4 nM
CCn1cccc(N2C[C@@H](c3ccc(OC)cc3F)[C@H](NC(=O)c3ccc(OC(F)(F)F)cc3)C2=O)c1=O [Example 82]	5.3 nM	2.2 nM
COCC(C(=O)N1CC[C@@H](O)C1)n1cccc(N2C[C@@H](c3c(F)cc(OC)cc3F)[C@H](NC(=O)c3ccc(OC(F)F)cc3)C2=O)c1=O (some centres unmarked) [Example 448]	9 nM	8 nM
CCn1cccc(N2C[C@@H](c3ccc(OC)cc3F)[C@H](NC(=O)c3ccc(OC(F)F)cc3)C2=O)c1=O [Example 226]	23 nM	6.2 nM
CCn1cncc(N2C[C@@H](c3c(F)cc(OC)cc3F)[C@H](NC(=O)c3ccc(OC(F)F)cc3)C2=O)c1=O [Example 369]	1100 nM	3.7 nM
COCCn1cccc(N2C[C@@H](c3c(F)cc(OC)cc3F)[C@H](NC(=O)c3ccc(OC(F)F)cc3)C2=O)c1=O [Example 36]	30 nM	5.5 nM
COc1cc(F)c([C@@H]2CN(c3nc(NC4CCOC4)ccc3F)C(=O)[C@H]2NC(=O)c2ccc(OC(F)F)cc2)c(F)c1 (some centres unmarked) [Example 122]	1080 nM	3.2 nM
COc1cc(F)c([C@@H]2CN(c3c(C)ncn(CC(F)F)c3=O)C(=O)[C@H]2NC(=O)c2ccc(Cl)cc2)c(F)c1 [Example 533]	900 nM	4 nM
COc1cc(F)c([C@@H]2CN(c3c(C)c4c(n(CCO)c3=O)CCC4)C(=O)[C@H]2NC(=O)c2ccc(Cl)cc2)c(F)c1 [Example 593]	40 nM	3.3 nM
COc1cc(F)c([C@@H]2CN(c3nc(C(F)(F)F)ccc3C#N)C(=O)[C@H]2NC(=O)c2ccc(OC(F)(F)F)cc2)c(F)c1 [Example 551]	77 nM	1.5 nM
COCC(CN)n1cccc(N2C[C@@H](c3c(F)cc(OC)cc3F)[C@H](NC(=O)c3ccc(OC(F)F)cc3)C2=O)c1=O (some centres unmarked) [Example 44]	10 nM	1 nM
COc1cc(F)c([C@@H]2CN(c3ncccc3C(F)(F)F)C(=O)[C@H]2NC(=O)c2ccc(Cl)nc2)c(F)c1 [Example 344]	2000 nM	46 nM
COCCNc1ccnc(N2C[C@@H](c3c(F)cc(OC)cc3F)[C@H](NC(=O)c3ccc(Cl)cc3)C2=O)c1C(F)(F)F [Example 410]	3300 nM	11.7 nM
COc1cc(F)c([C@@H]2CN(c3c(C#N)ccn(C)c3=O)C(=O)[C@H]2NC(=O)c2ccc(Cl)cc2)c(F)c1 [Example 251]	> 5000 nM	7 nM
COCC(CN)n1cccc(N2C[C@@H](c3c(F)cc(OC)cc3F)[C@H](NC(=O)c3ccc(OC(F)(F)F)cc3)C2=O)c1=O (some centres unmarked) [Example 78]	5.2 nM	2 nM
COc1cc(F)c([C@@H]2CN(c3nc(C4CCN(CCO)CC4)ccc3F)C(=O)[C@H]2NC(=O)c2ccc(OC(F)F)cc2)c(F)c1 [Example 590]	1600 nM	1.9 nM
